The values below come from article PMC3707110 (Nature methods, 2012).

Non-standard residues stand in square brackets, D forms with d. Residues, ends and D or L forms follow the SMILES beside them. *: point of attachment. Sta = CC(C)C[C@H](N)[C@@H](O)CC(=O)O; Isovaleryl = CC(C)CC(=O)*

Experiment [1] relates to peptidases in conditioned media from pancreatic ductal adenocarcinoma cells. The experiment is classed as biochemical, mouse. The following applies: media pre-treated 30 minutes at room temperature with 1 μM E64, 1 μM 1,10-Phenanthroline or 400 nM pepstatin; pH 5.2; within 1200 minutes.
A further experiment concerns Granzyme B. The following applies: fluorescent substrate containing the sequence; previous studies; cited from earlier work.

As to `CC(C)C[C@H](NC(=O)[C@H]1O[C@@H]1C(=O)O)C(=O)NCCCCN=C(N)N` [E-64], the “effect on cleavage sites / cleavage signature of conditioned media” value in experiment [1] is given as “majority of cleavage sites remained unchanged”. Same read-out and setting: under `CC(C)CC(=O)N[C@H](C(=O)N[C@H](C(=O)N[C@@H](CC(C)C)[C@@H](O)CC(=O)N[C@@H](C)C(=O)N[C@@H](CC(C)C)[C@@H](O)CC(=O)O)C(C)C)C(C)C` [pepstatin] (Isovaleryl-VV[Sta]A[Sta]-OH) stands “completely altered the cleavage signature”. Turning to VVAD↓SSMES, the “catalytic efficiency (kcat/KM)” value with Granzyme B is 116,000 M^−1 s^−1. With `c1cnc2c(c1)ccc1cccnc12` [1,10-phenanthroline], in experiment [1], the “effect on cleavage sites / cleavage signature of conditioned media” value is “majority of cleavage sites remained unchanged”.
